In patent publication US20260240906A1, “MUSCLE MASS INCREASING AGENT AND ENDURANCE IMPROVING AGENT” (KOHAKU BIO TECHNOLOGY CO., LTD., priority 2023, published 2026):

Assays:
Format in all cases: cell-based, mouse
C2Cl2 myotube cells [1] = assay: Effect on intracellular ATP concentration (luciferin-luciferase system); conditions: 6 hours or 12 hours
Method: (§1) The amber extract obtained through extraction by the method of Example 1 was analyzed for its action using myoblasts C2Cl2. The C2Cl2 cells are cells established from mouse regenerating muscles (striated muscles) and are considered to be derived from muscle satellite cells. The myoblasts, when cultured in a differentiation inducing medium, are fused and differentiated into myotube cells.
(§2) The C2Cl2 myoblasts were cultured in Dulbecco's modified Eagle medium (DMEM) supplemented with 10% FBS, penicillin (100 Us/ml), and streptomycin ([…]) under conditions of 37° C. and 5% CO2. Differentiation into myotube cells was induced by medium replacement with DMEM containing 2% horse serum when the cells reached 95% confluency. The experiment was carried out using the differentiated C2Cl2 myotube after 5 to 7 days from the induction of differentiation.
Intracellular ATP levels were measured using a luciferin-luciferase system. C2Cl2 cells were inoculated at 0.5×10^4 cells/well to a 96-well plate and cultured at 37° C. for 48 hours until confluent. After induction of differentiation for 5 days, the cells were treated with the amber extract (25 or 50 μg/mL) prepared by the method of Example 1 or succinic acid (2.5 or 5 μg/mL) for 6 hours or 12 hours. The luminescence of each well was measured at 480/530 nm (excitation/luminescence) using a microplate reader (Synergy H1, BioTek Instruments).

C2Cl2 myotube cells [2] = assay: Detection of mitochondrial ROS; conditions: 1, 2.5, or 5 μg/mL, 24 hours
Method: as §1, §2
Accordingly, in order to confirm this, mitochondrial ROS was detected. C2Cl2 cells were inoculated at 0.5×10^4 cells/well to a 96-well plate and cultured at 37° C. for 48 hours until confluent. After induction of differentiation for 5 days in a differentiation inducing medium, the cells were treated with the amber extract ([…]) or succinic acid (1, 2.5, or 5 μg/mL) for 24 hours. The mitochondrial ROS was measured at 485/565 nm (excitation/fluorescence) using Mitochondrial ROS Detection Assay Kit (Cayman Chemical Company).

C2Cl2 myotube cells [3] = assay: Detection of mitochondrial membrane potential (JC-1); conditions: 1, 2.5, or 5 μg/mL, 24 hours
Method: as §1, §2
Mitochondrial membrane potential serving as an indicator for mitochondrial activation was also analyzed. C2Cl2 cells were inoculated at 0.5×10^4 cells/well to a 96-well plate and cultured at 37° C. for 48 hours until confluent. […] The mitochondrial membrane potential was measured at green: 485/535 nm (excitation/fluorescence) and red: 535/595 nm (excitation/fluorescence) using JC-1 MitoMP Detection Kit (Dojindo Laboratories).

O=C(O)CCC(=O)O [succinic acid]
ATP concentration (C2Cl2 myotube cells [1]; 2.5 μg/mL): no change | ATP concentration (C2Cl2 myotube cells [1]; 5 ug/mL): no change | mitochondrial activation (mitochondrial ROS) (C2Cl2 myotube cells [2]): no mitochondrial activation | mitochondrial activation (membrane potential) (C2Cl2 myotube cells [3]): no mitochondrial activation
